According to the METLIN SMRT retention time set (Domingo-Almenara et al. 2019):

Assay: gradient 5% acetonitrile 3 min, to 50% in 2 min, to 85% in 15 min, held 3 min, 100 µL/min
Details: column: Zorbax Extend-C18 2.1 x 50 mm; eluents: water / acetonitrile, 0.1% formic acid
Outline: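 Each retention time is based on an adduct peak selected computationally and verified by manual inspection. Measurements used HPLC–quadrupole time-of-flight mass spectrometry in positive and negative ionization mode on mixtures of ~100 pure standards. Chromatography ran on a Zorbax Extend-C18 column (2.1 × 50 mm, 1.8 μm) at 100 μL/min with water and acetonitrile, each containing 0.1% formic acid, and dead and dwell volumes of 40 μL and 900 μL.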

Row | SMILES | RP-LC retention time [s]
1 | CC(=O)N1CCCc2cc(S(=O)(=O)N3CCC(C(=O)NCc4ccccn4)CC3)ccc21 | 607
2 | CCCc1noc(-c2ccc(-n3cnc(C(=O)N4CCCC4)c3)nc2)n1 | 816
3 | COC(=O)CNC(=O)N1CCCC1c1cccc(F)c1 (stereo not drawn) | 701
4 | CCOc1ccc(-n2cc(C(=O)OCC(=O)OC(C)C)c3ccccc3c2=O)cc1 | 1140
5 | Cc1ccc2c(Nc3ccc(CC(=O)O)cc3)c(C(=O)N3CCCC3)cnc2n1 | 572
6 | O=C(CSCc1nc2cccnc2n1C1CCCCC1)NCCc1ccco1 | 883
7 | CCC(CC)C(=O)N1C[C@H]2C[C@H](C1)[C@H]1CCCC(=O)N1C2 | 645
8 | CCOCCCNC(=O)N1CCC(c2noc(-c3cnccn3)n2)C1 (stereo not drawn) | 614
9 | Cc1ccc(C)c(NC(=O)c2cc(C)n3nccc3n2)c1 | 1030
10 | Cc1c(Cl)ccc2c(=O)c3c([nH]c12)CCN(CC(=O)Nc1cc(F)cc(F)c1)C3 | 664
11 | Cc1nc(-c2cc(S(=O)(=O)NCCCN3CCC(C)CC3)c(C)s2)sc1C | 699
12 | Cc1cc(N2CCN(C(=O)Cc3cccc(F)c3)CC2)nc2nncn12 | 593
13 | Cc1sc(-c2cc(C(F)(F)F)[nH]n2)cc1S(=O)(=O)NC1CCCC1 | 1000
14 | COC(=O)c1c(-c2ccc(Cl)cc2)noc1N1CCN(c2ccccn2)CC1 | 1000
15 | Cn1ncc(N2CCCC(C(=O)NC3CCCCCC3)C2)cc1=O (stereo not drawn) | 726
16 | CC(C)NC(=O)C1(c2ccc(NC(=O)C(C)C)cc2)CCCCC1 | 851
17 | CCCn1cc(C(=O)Nc2ccc(OC)c(OC)c2)c(=O)c2ccc(C)nc21 | 1020
18 | COc1cccc(-c2ccc(=O)n(CCc3nc(-c4cccc(Br)c4)no3)n2)c1 | 1080
19 | CC(C)Cn1cc(S(=O)(=O)Nc2ccc(F)cc2Cl)c2cccnc21 | 1010
20 | CN(C)c1ccc(CNC(=O)C2CCN(c3cc(N4CCCCC4)ncn3)CC2)cc1 | 559
21 | CC1=C(c2ccc(C)c(C)c2)S(=O)(=O)N=C1N1CCCN(C(=O)c2cccnc2)CC1 | 788
22 | Cn1nc(-c2nc(Cc3ccccc3)no2)c2c1CCN(C(=O)Nc1ccccc1)C2 | 905

Row | SMILES | RP-LC retention time [s]
23 | COc1cccc(N2CCN(c3ccc(-c4nc(-c5ccccc5)no4)cn3)CC2)c1 | 1410
24 | Cc1ccc(NC(=O)Cn2c(=O)c3cc(-c4cccs4)nn3c3ncccc32)cc1F | 924
25 | O=C(Nc1ccc2c(c1)N(C(=O)c1ccco1)CC2)c1ccc2c(c1)OCO2 | 770
26 | CN(C)C(=O)c1csc(S(=O)(=O)N2CCC(C(=O)NCc3ccc4c(c3)OCO4)CC2)c1 | 714
27 | CCOC(=O)c1cn(CC(=O)NC2CCCC2)c2nc(C)ccc2c1=O | 686
28 | Cc1nc(-c2ccccc2Cl)sc1C(=O)N[C@@H](Cc1c[nH]c2ccccc12)C(=O)O | 898
29 | O=C(CN1CC=C(c2cnn(-c3ccc(F)cc3)c2)CC1)N1CCN(c2ccccn2)CC1 | 566
30 | CC1CCCN(CCCNC(=O)CN2C(=O)CCn3nc(-c4cn(C)c5ccccc45)cc32)C1 (stereo not drawn) | 635
31 | COc1ccc(-c2noc(CCc3nnc4ccc(N5CCN(C6CCCCC6)CC5)nn34)n2)cc1 | 646
32 | O=C(COc1ccccc1F)NCC1CCN(Cc2cccs2)CC1 | 560
33 | CCn1nc(C(=O)NCCn2nc(C)cc2C)ccc1=O | 578
34 | O=C1NC2(CCN(C(=O)Nc3ccc(F)cc3)CC2)N=C1c1cccc(Cl)c1 | 872
35 | O=C(NCC(=O)N1CCOC(c2ccccc2)C1)c1ccc(-c2ccccc2)cc1 (stereo not drawn) | 893
36 | COc1ccccc1-c1nnc(-c2ccc(C)c(S(=O)(=O)N3CCCC3)c2)o1 | 966
37 | Cn1c(=O)c2c(ncn2CC(=O)Nc2nccs2)n(C)c1=O | 576
38 | Cc1ccc(-c2nnc(Cc3nc(C(C)C)no3)o2)cc1C | 967
39 | CNC(=O)Cn1nc(C2CCN(C(=O)c3ccc(F)cc3)CC2)c2c1CCOC2 | 614
40 | CCc1cc(C(=O)N2CCN(C3CCN(C)CC3)CC2)nc2cc(-c3ccccn3)nn12 | 562
41 | CCOC(=O)C(=O)Nc1ccc(SCc2nnc(-c3ccccc3)o2)cc1 | 881
42 | CCOC(=O)c1c(S(=O)(=O)N2CCC(C(=O)Nc3ccc(CC)cc3)CC2)c(C)n(CC)c1C | 984
43 | CCOc1ccc(-c2nc(NC(=O)Cc3csc(COc4cc(C)ccc4C)n3)sc2C)cc1 | 1350
44 | O=C(Cn1c(=O)n(C2CCCCC2)c2ncccc21)NCCCN1CCOCC1 | 612

Row | SMILES | RP-LC retention time [s]
45 | CN1CCC2(CC1)CN(C(=O)CCc1nc3ccccc3s1)Cc1ccccc1O2 | 671
46 | CCCNc1cc(C)nc2nc(-c3ccc(C(C)(C)C)cc3)nn12 | 1000
47 | Cc1ccc(-n2nc(C)c(S(=O)(=O)N3CCC(C(=O)N4CCN(C)CC4)CC3)c2C)cc1 | 629
48 | COc1cc(OC)cc(C(=O)N2CCC(c3cc(N)on3)CC2)c1 | 677
49 | O=C(O)c1cn(CCOc2ccccc2)c2ccccc12 | 885
50 | O=C(Nc1ccccc1F)N1CCN(Cc2nc3cc(Cl)ccc3o2)CC1 | 737
51 | CCN1CCC2(CC1)N=C(c1ccc(F)cc1)CC(c1cc(Cl)ccc1O)N2 (stereo not drawn) | 635
52 | COC(=O)c1ccccc1Nc1c(-c2ccc(Br)cc2)nc2cnccn12 | 1130
53 | O=C(CSc1nnc(NC(=O)C2(c3cccs3)CCCC2)s1)c1ccccc1 | 1050
54 | COc1ccc(CNC(=O)Cn2nc(C)c3sc(-c4ccccc4)nc3c2=O)cc1 | 846
55 | CCCc1cc(=O)oc2cc(C)cc(OCC(=O)N[C@H](C(=O)O)C(C)C)c12 | 806
56 | CNC(=O)N1CC(c2nc(-c3ccc(F)cc3)no2)C2(CCOCC2)C1 (stereo not drawn) | 723
57 | CCOCCCNC(=O)N1CCN(Cc2nc3cccnc3n2-c2cc(C)cc(C)c2)CC1 | 653
58 | CCn1cc(C(=O)NCc2ccccc2)c2cccnc21 | 782
59 | CCCN(CCC)c1nc(-c2ccccc2F)nc2ccccc12 | 814
60 | Cc1ccc(-c2nc(Cn3nnc(C(=O)NCc4ccco4)c3C)c(C)o2)cc1 | 1000
61 | COc1ccc(C2=NC3(CCN(C(=O)Nc4ccc(Cl)cc4)CC3)NC2=O)cc1 | 835
62 | CCOC(=O)c1[nH]c(C)c(CN(Cc2ccco2)C(=O)c2ccc(N(C)C)cc2)c1C | 894
63 | CCC1Oc2ccc(S(=O)(=O)N3CCC(C(=O)NC4CCCCC4)CC3)cc2NC1=O (stereo not drawn) | 838
64 | CCOC(=O)c1cc2n(n1)CC(C)(C(=O)NCc1ccc(C)cc1)N(C1CC1)C2=O (stereo not drawn) | 786
65 | CN(C)CCn1cc(C(=O)NCc2cccs2)ccc1=O | 578
66 | O=C(C1CCN(c2nc3ccc(-c4cccc(F)c4)nc3s2)CC1)N1CCOCC1 | 892

Row | SMILES | RP-LC retention time [s]
67 | COc1ccccc1CNC(=O)[C@@H]1[C@H](c2cc(OC)c(OC)c(OC)c2)c2cc3c(cc2[C@H](O)[C@H]1CO)OCO3 | 713
68 | O=C(C1=NN(Cc2cccc(F)c2)c2ccc(Cl)cc2S1(=O)=O)N1CCOCC1 | 875
69 | Cc1ccc(N2CCN(Cc3nc4nc(C)cc(N5CCOCC5)n4n3)CC2)cc1 | 636
70 | CC1(C(=O)NCc2ccc(F)cc2)CN(S(C)(=O)=O)CC(=O)N1CCCc1ccccc1 (stereo not drawn) | 882
71 | CC(C)NC(=O)C1CCN(c2nc3ccc(-c4cccnc4)nc3s2)CC1 | 605
72 | CC(C)N1CC2(CCN(S(=O)(=O)c3ccccc3)CC2)C1c1ccccc1 (stereo not drawn) | 690
73 | COc1ccccc1-c1cc2c(=O)n(Cc3nc(-c4ccccc4OC)oc3C)ccn2n1 | 1020
74 | O=C(NC1CCN(C(=O)C2CC2)C1)c1ccc(F)cc1 (stereo not drawn) | 666
75 | COc1ccc(NC(=O)C2CCN(S(=O)(=O)c3ccc4[nH]c(=O)sc4c3)CC2)c(OC)c1 | 774
76 | Cc1ccc(Cl)cc1NC(=O)C1CCCN(c2nnc(C)c3c(C)n(-c4ccccc4)nc23)C1 (stereo not drawn) | 802
77 | Cc1ccc(NC(=O)CSc2nccc(N3CCN(c4cc(C)ccc4C)CC3)n2)c(F)c1 | 1110
78 | COCCN1C(=O)CCc2cc(NS(=O)(=O)c3cccc(F)c3)ccc21 | 748
79 | Cn1c(C(=O)NC2CCN(Cc3ccccc3)CC2)cc2c(=O)oc3ccccc3c21 | 667
80 | Cc1cc(C)c(-c2noc(C)n2)c(NC(=O)c2ccccc2Br)n1 | 762
81 | COCC1CN(S(=O)(=O)c2ccc(C)c(F)c2)CC12CCNCC2 (stereo not drawn) | 643
82 | CCc1cc(=O)n(CC(=O)Nc2ccccc2CC)c(N)n1 | 610
83 | Cc1ccc(NC(=O)N2CCc3cn(C)c4cccc(c34)C2)cc1C | 981
84 | CC(/C=C/c1cccc(Oc2ccc(F)cc2)c1)N(O)C(N)=O (stereo not drawn) | 927
85 | CC(O)(CNC(=O)C(=O)NCCC1=CCCCC1)c1cccs1 (stereo not drawn) | 1120
86 | CCCn1c(=O)c2sc(N3CCCC3)nc2n(CC(=O)NCCC2=CCCCC2)c1=O | 997
87 | Cc1nn(CCCC(=O)N2CCOCC2)c(=O)c2nn(-c3ccccc3)c(C)c12 | 673
88 | CCOc1ccc(-c2nc(Cc3noc(-c4ccc(C#N)cc4)n3)c(C)o2)cc1 | 1160
